Test results taken from patent publication US20230391768A2, “IMIDAZOPYRIDINE DERIVATIVES AND AZA-IMIDAZOPYRIDINE DERIVATIVES AS JANUS KINASE 2 INHIBITORS AND USES THEREOF” (Dana-Farber Cancer Institute, Inc., priority 2018, published 2023).

Key:
Assay in all cases: KINOMEscan
Format in all cases: binding
Settings in all cases: read-out: percent of control
AMPK-alpha1 = AMPK-alpha1 (Homo sapiens (Human), UniProt Q13131)
Description: (§1) In vitro profiling of Compound I-2 (1 μM) was performed using the DiscoveRx KINOMEscan® platform.

PIK3CA(E545K) = PIK3CA(E545K) (Homo sapiens (Human), UniProt P42336, E545K)
Description: as §1

YSK1 = YSK1 (Homo sapiens (Human), UniProt O00506)
Description: as §1

[1] = target: RSK3 (Kin.Dom.2-C-terminal) (Homo sapiens (Human), UniProt Q15349)
RSK3 (Kin.Dom.2-C-terminal), sequence (Q15349 415-672): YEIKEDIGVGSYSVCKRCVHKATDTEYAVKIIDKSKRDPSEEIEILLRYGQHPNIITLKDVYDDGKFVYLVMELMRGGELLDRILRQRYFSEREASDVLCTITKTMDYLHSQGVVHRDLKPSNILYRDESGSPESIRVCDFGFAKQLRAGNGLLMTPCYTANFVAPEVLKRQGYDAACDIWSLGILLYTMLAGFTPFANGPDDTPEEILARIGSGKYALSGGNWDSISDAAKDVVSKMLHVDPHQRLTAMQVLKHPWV
Description: as §1

PYK2 = PYK2 (Homo sapiens (Human), UniProt Q14289)
Description: as §1

CDC2L1 = CDC2L1 (Homo sapiens (Human), UniProt P21127)
CDC2L1, sequence (P21127 whole entry): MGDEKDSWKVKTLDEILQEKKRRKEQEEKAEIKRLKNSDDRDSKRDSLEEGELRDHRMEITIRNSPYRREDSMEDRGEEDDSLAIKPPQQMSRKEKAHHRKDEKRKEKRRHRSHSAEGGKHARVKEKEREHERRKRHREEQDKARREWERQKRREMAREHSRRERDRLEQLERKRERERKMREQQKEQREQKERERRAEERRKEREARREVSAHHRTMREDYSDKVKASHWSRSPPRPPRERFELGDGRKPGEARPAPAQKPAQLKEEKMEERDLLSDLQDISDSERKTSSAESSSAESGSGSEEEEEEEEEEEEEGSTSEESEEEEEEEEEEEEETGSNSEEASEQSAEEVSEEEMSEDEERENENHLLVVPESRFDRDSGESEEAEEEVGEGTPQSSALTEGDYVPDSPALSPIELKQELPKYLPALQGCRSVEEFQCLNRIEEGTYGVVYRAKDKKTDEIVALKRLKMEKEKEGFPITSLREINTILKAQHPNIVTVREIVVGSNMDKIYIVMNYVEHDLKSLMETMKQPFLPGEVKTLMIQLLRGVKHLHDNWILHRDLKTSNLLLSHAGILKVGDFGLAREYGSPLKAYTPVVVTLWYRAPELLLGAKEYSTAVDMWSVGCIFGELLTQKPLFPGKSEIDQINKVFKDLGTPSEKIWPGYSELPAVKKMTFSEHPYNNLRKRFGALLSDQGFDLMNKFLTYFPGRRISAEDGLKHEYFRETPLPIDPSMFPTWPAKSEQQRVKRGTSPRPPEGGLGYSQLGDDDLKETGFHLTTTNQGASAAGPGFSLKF
Description: as §1

INSR = INSR (Homo sapiens (Human), UniProt P06213)
INSR, sequence (P06213 28-1382): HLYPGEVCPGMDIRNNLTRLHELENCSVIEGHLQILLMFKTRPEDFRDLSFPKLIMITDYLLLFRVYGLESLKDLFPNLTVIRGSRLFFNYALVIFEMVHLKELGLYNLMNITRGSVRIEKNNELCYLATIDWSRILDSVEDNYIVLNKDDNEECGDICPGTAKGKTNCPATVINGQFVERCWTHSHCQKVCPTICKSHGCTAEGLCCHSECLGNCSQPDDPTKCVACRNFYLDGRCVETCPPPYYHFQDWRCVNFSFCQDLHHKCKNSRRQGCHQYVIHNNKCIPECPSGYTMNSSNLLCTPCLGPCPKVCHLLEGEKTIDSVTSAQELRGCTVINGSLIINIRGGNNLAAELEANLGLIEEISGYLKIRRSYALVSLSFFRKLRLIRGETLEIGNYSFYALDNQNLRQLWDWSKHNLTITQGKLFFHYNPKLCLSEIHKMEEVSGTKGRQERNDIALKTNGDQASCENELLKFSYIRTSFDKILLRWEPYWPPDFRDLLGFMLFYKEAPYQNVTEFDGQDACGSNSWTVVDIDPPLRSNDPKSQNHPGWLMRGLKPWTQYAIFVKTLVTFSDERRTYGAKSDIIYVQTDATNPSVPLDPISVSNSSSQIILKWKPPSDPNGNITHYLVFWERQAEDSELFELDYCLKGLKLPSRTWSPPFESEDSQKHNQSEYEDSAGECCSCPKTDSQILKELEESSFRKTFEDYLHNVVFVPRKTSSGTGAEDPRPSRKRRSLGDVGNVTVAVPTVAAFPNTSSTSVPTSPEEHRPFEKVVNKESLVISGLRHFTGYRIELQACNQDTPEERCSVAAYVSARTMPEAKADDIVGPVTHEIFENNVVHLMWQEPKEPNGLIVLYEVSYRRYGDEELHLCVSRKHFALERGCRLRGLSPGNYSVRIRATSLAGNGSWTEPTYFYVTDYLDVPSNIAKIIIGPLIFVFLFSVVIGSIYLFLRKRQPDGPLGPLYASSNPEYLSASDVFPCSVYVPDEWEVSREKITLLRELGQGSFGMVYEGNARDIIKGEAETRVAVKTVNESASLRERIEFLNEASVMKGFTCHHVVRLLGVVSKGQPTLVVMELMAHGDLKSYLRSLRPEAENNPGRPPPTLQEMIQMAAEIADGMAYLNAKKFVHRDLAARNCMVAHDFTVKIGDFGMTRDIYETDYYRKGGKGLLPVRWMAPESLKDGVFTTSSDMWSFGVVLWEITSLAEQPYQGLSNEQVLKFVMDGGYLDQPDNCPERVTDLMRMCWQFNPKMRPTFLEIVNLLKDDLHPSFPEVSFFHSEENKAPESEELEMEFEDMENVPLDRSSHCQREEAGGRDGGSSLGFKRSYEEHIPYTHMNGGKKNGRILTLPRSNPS
Description: as §1

SRC = SRC (Homo sapiens (Human), UniProt P12931)
Description: as §1

BIKE = BIKE (Homo sapiens (Human), UniProt Q9NSY1)
Description: as §1

MAST1 = MAST1 (Homo sapiens (Human), UniProt Q9Y2H9)
MAST1, sequence (Q9Y2H9 whole entry): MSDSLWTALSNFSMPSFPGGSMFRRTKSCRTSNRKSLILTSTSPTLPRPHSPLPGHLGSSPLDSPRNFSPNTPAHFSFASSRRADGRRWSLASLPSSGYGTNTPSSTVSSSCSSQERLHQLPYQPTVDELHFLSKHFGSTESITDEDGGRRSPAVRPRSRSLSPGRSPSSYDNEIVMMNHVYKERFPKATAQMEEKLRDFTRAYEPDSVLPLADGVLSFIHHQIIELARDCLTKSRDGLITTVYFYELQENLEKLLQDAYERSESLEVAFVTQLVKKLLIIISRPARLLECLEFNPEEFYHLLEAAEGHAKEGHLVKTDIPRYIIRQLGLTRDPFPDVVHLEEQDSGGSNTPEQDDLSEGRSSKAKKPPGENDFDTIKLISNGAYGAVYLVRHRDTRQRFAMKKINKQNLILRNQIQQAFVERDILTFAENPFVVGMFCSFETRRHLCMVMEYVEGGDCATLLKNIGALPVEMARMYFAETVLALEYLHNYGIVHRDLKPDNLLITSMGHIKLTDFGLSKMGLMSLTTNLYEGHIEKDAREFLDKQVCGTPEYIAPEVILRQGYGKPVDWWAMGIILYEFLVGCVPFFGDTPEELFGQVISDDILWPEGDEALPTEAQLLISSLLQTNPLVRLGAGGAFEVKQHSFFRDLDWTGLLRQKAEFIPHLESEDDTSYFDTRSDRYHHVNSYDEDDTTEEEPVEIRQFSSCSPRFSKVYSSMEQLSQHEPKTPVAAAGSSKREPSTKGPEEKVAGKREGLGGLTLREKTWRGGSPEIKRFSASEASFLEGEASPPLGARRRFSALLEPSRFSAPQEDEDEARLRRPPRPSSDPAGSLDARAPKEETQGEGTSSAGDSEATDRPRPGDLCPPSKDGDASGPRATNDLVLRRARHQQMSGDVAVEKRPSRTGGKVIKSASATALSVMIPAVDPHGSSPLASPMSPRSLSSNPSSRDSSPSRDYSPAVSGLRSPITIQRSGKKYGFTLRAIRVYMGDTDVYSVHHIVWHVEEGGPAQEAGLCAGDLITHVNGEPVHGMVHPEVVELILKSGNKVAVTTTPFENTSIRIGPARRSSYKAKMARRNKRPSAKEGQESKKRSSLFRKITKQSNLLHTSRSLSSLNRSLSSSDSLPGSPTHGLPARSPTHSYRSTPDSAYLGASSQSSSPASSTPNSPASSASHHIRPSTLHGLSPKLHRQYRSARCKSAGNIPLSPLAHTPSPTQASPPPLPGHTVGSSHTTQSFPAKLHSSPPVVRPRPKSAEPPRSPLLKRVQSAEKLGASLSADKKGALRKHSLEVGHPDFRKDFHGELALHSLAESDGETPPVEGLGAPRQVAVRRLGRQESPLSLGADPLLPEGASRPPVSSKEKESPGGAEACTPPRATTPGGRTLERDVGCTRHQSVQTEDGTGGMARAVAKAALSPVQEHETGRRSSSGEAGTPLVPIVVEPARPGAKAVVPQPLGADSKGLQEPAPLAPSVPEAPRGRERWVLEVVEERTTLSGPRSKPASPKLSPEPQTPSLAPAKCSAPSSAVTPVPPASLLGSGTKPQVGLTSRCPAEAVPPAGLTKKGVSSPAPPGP
Description: as §1

TESK1 = TESK1 (Homo sapiens (Human), UniProt Q15569)
Description: as §1

KIT = KIT (Homo sapiens (Human), UniProt P10721)
Description: as §1

AKT3 = AKT3 (Homo sapiens (Human), UniProt Q9Y243)
AKT3, sequence (Q9Y243 whole entry): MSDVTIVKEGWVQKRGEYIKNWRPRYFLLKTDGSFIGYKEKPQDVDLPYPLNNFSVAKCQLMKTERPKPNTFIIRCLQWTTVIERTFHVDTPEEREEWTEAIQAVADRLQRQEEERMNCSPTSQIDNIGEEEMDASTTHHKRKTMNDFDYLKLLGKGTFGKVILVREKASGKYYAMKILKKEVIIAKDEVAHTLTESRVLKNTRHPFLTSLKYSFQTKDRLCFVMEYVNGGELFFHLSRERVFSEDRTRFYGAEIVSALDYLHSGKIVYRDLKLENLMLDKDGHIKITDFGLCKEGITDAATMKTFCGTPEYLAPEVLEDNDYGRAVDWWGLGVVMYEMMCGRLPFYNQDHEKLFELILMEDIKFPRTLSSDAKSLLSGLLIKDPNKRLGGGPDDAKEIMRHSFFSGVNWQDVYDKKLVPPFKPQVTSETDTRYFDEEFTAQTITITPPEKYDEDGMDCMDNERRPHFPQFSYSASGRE
Description: as §1

MEK6 = MEK6 (Homo sapiens (Human), UniProt P52564)
Description: as §1

MYLK2 = MYLK2 (Homo sapiens (Human), UniProt Q9H1R3)
MYLK2, sequence (Q9H1R3 whole entry): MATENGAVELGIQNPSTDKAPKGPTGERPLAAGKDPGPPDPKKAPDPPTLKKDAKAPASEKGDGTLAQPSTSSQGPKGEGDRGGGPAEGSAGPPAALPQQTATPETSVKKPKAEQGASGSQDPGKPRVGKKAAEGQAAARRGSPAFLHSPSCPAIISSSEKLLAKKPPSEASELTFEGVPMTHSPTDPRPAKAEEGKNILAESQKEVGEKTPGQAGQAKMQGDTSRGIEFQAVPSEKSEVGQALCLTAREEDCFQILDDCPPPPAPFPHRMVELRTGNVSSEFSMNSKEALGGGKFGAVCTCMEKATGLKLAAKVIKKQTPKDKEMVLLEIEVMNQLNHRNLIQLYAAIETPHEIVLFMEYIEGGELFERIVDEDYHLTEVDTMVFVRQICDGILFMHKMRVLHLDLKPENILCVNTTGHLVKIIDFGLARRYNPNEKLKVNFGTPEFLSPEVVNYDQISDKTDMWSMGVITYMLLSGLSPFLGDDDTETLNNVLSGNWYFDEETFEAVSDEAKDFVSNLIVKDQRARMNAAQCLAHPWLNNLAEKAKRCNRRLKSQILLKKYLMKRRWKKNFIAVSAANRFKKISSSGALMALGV
Description: as §1

DAPK1 = DAPK1 (Homo sapiens (Human), UniProt P53355)
Description: as §1

TLK1 = TLK1 (Homo sapiens (Human), UniProt Q9UKI8)
Description: as §1

PRKX = PRKX (Homo sapiens (Human), UniProt P51817)
Description: as §1

CAMK1 = CAMK1 (Homo sapiens (Human), UniProt Q14012)
Description: as §1

EPHA2 = EPHA2 (Homo sapiens (Human), UniProt P29317)
Description: as §1

PDGFRA = PDGFRA (Homo sapiens (Human), UniProt P16234)
Description: as §1

INSRR = INSRR (Homo sapiens (Human), UniProt P14616)
Description: as §1

CSNK1A1L = CSNK1A1L (Homo sapiens (Human), UniProt Q8N752)
Description: as §1

MKNK1 = MKNK1 (Homo sapiens (Human), UniProt Q9BUB5)
Description: as §1

p38-alpha = p38-alpha (Homo sapiens (Human), UniProt Q16539)
Description: as §1

ERK1 = ERK1 (Homo sapiens (Human), UniProt P27361)
Description: as §1

IRAK1 = IRAK1 (Homo sapiens (Human), UniProt P51617)
Description: as §1

TAK1 = TAK1 (Homo sapiens (Human), UniProt O43318)
Description: as §1

YSK4 = YSK4 (Homo sapiens (Human), UniProt Q56UN5)
Description: as §1

[2] = target: ABL1(T315I)-nonphosphorylated (Homo sapiens (Human), UniProt P00519, T315I)
Description: as §1

BLK = BLK (Homo sapiens (Human), UniProt P51451)
Description: as §1

ASK2 = ASK2 (Homo sapiens (Human), UniProt O95382)
Description: as §1

EGFR(L747-E749del,A750P) = EGFR(L747-E749del,A750P) (Homo sapiens (Human), UniProt P00533, A750P/DEL747-749)
Description: as §1

MERTK = MERTK (Homo sapiens (Human), UniProt Q12866)
Description: as §1

CDKL3 = CDKL3 (Homo sapiens (Human), UniProt Q8IVW4)
Description: as §1

CHEK1 = CHEK1 (Homo sapiens (Human), UniProt O14757)
Description: as §1

ZAK = ZAK (Homo sapiens (Human), UniProt Q9NYL2)
Description: as §1

CAMK1G = CAMK1G (Homo sapiens (Human), UniProt Q96NX5)
Description: as §1

FGFR3 = FGFR3 (Homo sapiens (Human), UniProt P22607)
Description: as §1

Compound	remaining binding at 1 µM (AMPK-alpha1)	remaining binding at 1 µM (PIK3CA(E545K))	remaining binding at 1 µM (YSK1)	remaining binding at 1 µM [1]	remaining binding at 1 µM (PYK2)	remaining binding at 1 µM (CDC2L1)	remaining binding at 1 µM (INSR)	remaining binding at 1 µM (SRC)	remaining binding at 1 µM (BIKE)	remaining binding at 1 µM (MAST1)	remaining binding at 1 µM (TESK1)	remaining binding at 1 µM (KIT)	remaining binding at 1 µM (AKT3)	remaining binding at 1 µM (MEK6)	remaining binding at 1 µM (MYLK2)	remaining binding at 1 µM (DAPK1)	remaining binding at 1 µM (TLK1)	remaining binding at 1 µM (PRKX)	remaining binding at 1 µM (CAMK1)	remaining binding at 1 µM (EPHA2)	other results
CCN1CCN(Cc2cc(NC(=O)c3ccc(C)c(-c4ccc5nc(NC(=O)C6CC6)cn5n4)c3)cc(C(F)(F)F)c2)CC1 [Compound I-2, 3-(2-(cyclopropanecarboxamido)imidazo[1,2-b]pyridazin-6-yl)-N-(3-((4-ethylpiperazin-1-yl)methyl)-5-(trifluoromethyl)phenyl)-4-methylbenzamide]	99%	99%	61%	98%	3.2%	44%	0.85%	0%	96%	94%	100%	0%	8%	94%	92%	100%	100%	100%	92%	1.8%	remaining binding at 1 µM (PDGFRA): 1.1%; remaining binding at 1 µM (INSRR): 0.55%; remaining binding at 1 µM (CSNK1A1L): 100%; remaining binding at 1 µM (MKNK1): 76%; remaining binding at 1 µM (p38-alpha): 8.4%; remaining binding at 1 µM (ERK1): 95%; remaining binding at 1 µM (IRAK1): 18%; remaining binding at 1 µM (TAK1): 1.1%; remaining binding at 1 µM (YSK4): 30%; remaining binding at 1 µM [2]: 0%; remaining binding at 1 µM (BLK): 0.75%; remaining binding at 1 µM (ASK2): 99%; remaining binding at 1 µM (EGFR(L747-E749del,A750P)): 14%; remaining binding at 1 µM (MERTK): 0.25%; remaining binding at 1 µM (CDKL3): 0.4%; remaining binding at 1 µM (CHEK1): 100%; remaining binding at 1 µM (ZAK): 2.3%; remaining binding at 1 µM (CAMK1G): 85%; remaining binding at 1 µM (FGFR3): 86%
CCN1CCN(Cc2cc(NC(=O)c3ccc(C)c(-c4ccc5nc(NC(=O)C6CC6)cn5c4)c3)cc(C(F)(F)F)c2)CC1 [Compound I-6, 3-(2-(cyclopropanecarboxamido)imidazo[1,2-a]pyridin-6-yl)-N-(3-((4-ethylpiperazin-1-yl)methyl)-5-(trifluoromethyl)phenyl)-4-methylbenzamide]	90%	93%	100%	89%	4.1%	33%	3.2%	0%	100%	95%	97%	0%	94%	95%	83%	100%	97%	100%	95%	0.15%	remaining binding at 1 µM (PDGFRA): 1.2%; remaining binding at 1 µM (INSRR): 3.8%; remaining binding at 1 µM (CSNK1A1L): 97%; remaining binding at 1 µM (MKNK1): 91%; remaining binding at 1 µM (p38-alpha): 26%; remaining binding at 1 µM (ERK1): 100%; remaining binding at 1 µM (IRAK1): 29%; remaining binding at 1 µM (TAK1): 2.7%; remaining binding at 1 µM (YSK4): 29%; remaining binding at 1 µM [2]: 0%; remaining binding at 1 µM (BLK): 0.2%; remaining binding at 1 µM (ASK2): 64%; remaining binding at 1 µM (EGFR(L747-E749del,A750P)): 18%; remaining binding at 1 µM (MERTK): 0.25%; remaining binding at 1 µM (CDKL3): 0%; remaining binding at 1 µM (CHEK1): 100%; remaining binding at 1 µM (ZAK): 6.2%; remaining binding at 1 µM (CAMK1G): 100%; remaining binding at 1 µM (FGFR3): 89%
